System: HaCaT cells
Assay: Concentrations of inflammatory mediators produced by HaCaT cells stimulated with TNFα and IFNγ in presence/absence of JAK inhibitors (ProCarta)
Type: cell-based, human
Outline: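 Mediator levels (pg/mL) in culture media quantified by multiplex Luminex bead assay against standard curves. Media collected after 24 h at 37 °C from HaCaT cells exposed to 25 ng/mL each of IFNγ and TNFα following 15 min drug pre-incubation; drug final concentrations 25–200 nM (25, 50, 100, 200 nM).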

[1] = TNFα+IFNγ 25 ng/mL each, drug conc. 1st of 4 rows (cell not shown; prob. 25 nM)
[2] = TNFα+IFNγ 25 ng/mL each, drug conc. 2nd of 4 rows (cell not shown; prob. 50 nM)
[3] = TNFα+IFNγ 25 ng/mL each, drug conc. 3rd of 4 rows (cell not shown; prob. 100 nM)
[4] = TNFα+IFNγ 25 ng/mL each, drug conc. 4th of 4 rows (cell not shown; prob. 200 nM)
[5] = drug present, concentration not given

Compound: C[C@@H](O)c1nc2cnc3ccsc3c2n1[C@H]1CC[C@H](CC#N)OC1 [Cpd D, ((2R,5S)-5-{2-[(1R)-1-hydroxyethyl]-1H-imidazo[4,5-d]thieno[3,2-b]pyridin-1-yl}tetrahydro-2H-pyran-2-yl)acetonitrile]
- IFN gamma concentration [1]: 24180.78 ± 2901.94 pg/mL
- IL1RA concentration [1]: 5760.33 ± 367.09 pg/mL
- IL1 alpha concentration [1]: 6.8 ± 0.39 pg/mL
- IL1 beta concentration [1]: 8.92 ± 0.42 pg/mL
- IL2 concentration [1]: 31.46 ± 1.56 pg/mL
- IL4 concentration [1]: 7.2 ± 1.25 pg/mL
- IL5 concentration [1]: 26.66 ± 1.72 pg/mL
- IL6 concentration [1]: 743.07 ± 36.3 pg/mL
- IL7 concentration [1]: 2.16 ± 0.11 pg/mL
- IL8 concentration [1]: 2820.21 ± 159.05 pg/mL
- IL9 concentration [1]: 3.7 ± 0^ pg/mL
- IL10 concentration [1]: 0.76 ± 0.08 pg/mL
- IL12p70 concentration [1]: 1.88 ± 0.19 pg/mL
- IL13 concentration [1]: 2.67 ± 0.24 pg/mL
- IL15 concentration [1]: 4.2 ± 0.86 pg/mL
- IL17A concentration [1]: 3.84 ± 0.3 pg/mL
- IL18 concentration [1]: 159.38 ± 4.31 pg/mL
- IL21 concentration [1]: 2.71 ± 0.18 pg/mL
- IL22 concentration [1]: 7.83 ± 0.75 pg/mL
- IL23 concentration [1]: 7.43 ± 0 pg/mL
- IL27 concentration [1]: 7.42 ± 0.9 pg/mL
- IL31 concentration [1]: 2.97 ± 0.37 pg/mL
- IP-10/CXCL10 concentration [1]: 3903.67 ± 366.97 pg/mL
- LIF concentration [1]: 65.71 ± 2.6 pg/mL
- MCP1 concentration [1]: 21968.74 ± 4662.32 pg/mL
- MIP1 alpha concentration [1]: 102.06 ± 4.18 pg/mL
- MIP1 beta concentration [1]: 313.64 ± 8.9 pg/mL
- PDGF-BB concentration [1]: 4.23 ± 0.18 pg/mL
- PIGF-1 concentration [1]: 59.56 ± 3.2 pg/mL
- RANTES concentration [1]: 237.57 ± 17.46 pg/mL
- SCF concentration [1]: 4.18 ± 0.24 pg/mL
- SDF-1 alpha concentration [1]: 3456.41 ± 158.06 pg/mL
- TNF alpha concentration [1]: 8951.15 ± 870.67 pg/mL
- TNF beta concentration [1]: 4.62 ± 0.49 pg/mL
- VEGF-A concentration [1]: 1303.84 ± 56.86 pg/mL
- VEGF-D concentration [1]: 8.7 ± 0.52 pg/mL
- IFN gamma concentration [2]: 25506.14 ± 3960.86 pg/mL
- IL1RA concentration [2]: 5709.52 ± 391.3 pg/mL
- IL1 alpha concentration [2]: 6.76 ± 0.4 pg/mL
- IL1 beta concentration [2]: 8.82 ± 0.46 pg/mL
- IL2 concentration [2]: 29.16 ± 2.01 pg/mL
- IL4 concentration [2]: 5.9 ± 1.18 pg/mL
- IL5 concentration [2]: 28.49 ± 1.85 pg/mL
- IL6 concentration [2]: 698.04 ± 29.79 pg/mL
- IL7 concentration [2]: 2.14 ± 0.07 pg/mL
- IL8 concentration [2]: 2907.08 ± 193.16 pg/mL
- IL9 concentration [2]: 3.37 ± 0.33 pg/mL
- IL10 concentration [2]: 0.67 ± 0.07 pg/mL
- IL12p70 concentration [2]: 1.69 ± 0.19 pg/mL
- IL13 concentration [2]: 2.21 ± 0.27 pg/mL
- IL15 concentration [2]: 2.82 ± 0.72 pg/mL
- IL17A concentration [2]: 4.15 ± 0.57 pg/mL
- IL18 concentration [2]: 156.12 ± 3.47 pg/mL
- IL21 concentration [2]: 2.13 ± 0.39 pg/mL
- IL22 concentration [2]: 8.9 ± 0^ pg/mL
- IL23 concentration [2]: 7.43 ± 0 pg/mL
- IL27 concentration [2]: 5.51 ± 1.25 pg/mL
- IL31 concentration [2]: 3.43 ± 0.31 pg/mL
- IP-10/CXCL10 concentration [2]: 3998.62 ± 456.34 pg/mL
- LIF concentration [2]: 66.01 ± 3.21 pg/mL
- MCP1 concentration [2]: 25836.84 ± 10636.84 pg/mL
- MIP1 alpha concentration [2]: 96.35 ± 3.57 pg/mL
- MIP1 beta concentration [2]: 316.87 ± 10.18 pg/mL
- PDGF-BB concentration [2]: 4.36 ± 0.18 pg/mL
- PIGF-1 concentration [2]: 56.72 ± 3.48 pg/mL
- RANTES concentration [2]: 237.55 ± 21.78 pg/mL
- SCF concentration [2]: 4.1 ± 0.21 pg/mL
- SDF-1 alpha concentration [2]: 3450.69 ± 158.13 pg/mL
- TNF alpha concentration [2]: 9862.6 ± 1041^ pg/mL
- TNF beta concentration [2]: 5.03 ± 0.38 pg/mL
- VEGF-A concentration [2]: 1286.84 ± 61.29 pg/mL
- VEGF-D concentration [2]: 8.49 ± 0.72 pg/mL
- IFN gamma concentration [3]: 29392.77 ± 4832.25 pg/mL
- IL1RA concentration [3]: 5879.83 ± 410.09 pg/mL
- IL1 alpha concentration [3]: 6.92 ± 0.4 pg/mL
- IL1 beta concentration [3]: 8.63 ± 0.36 pg/mL
- IL2 concentration [3]: 29.23 ± 1.62 pg/mL
- IL4 concentration [3]: 5.13 ± 0.78 pg/mL
- IL5 concentration [3]: 27.43 ± 2.11 pg/mL
- IL6 concentration [3]: 703.99 ± 42.22 pg/mL
- IL7 concentration [3]: 2.15 ± 0.14 pg/mL
- IL8 concentration [3]: 3061.2 ± 217.26 pg/mL
- IL9 concentration [3]: 3.58 ± 0.24 pg/mL
- IL10 concentration [3]: 0.81 ± 0.07 pg/mL
- IL12p70 concentration [3]: 1.75 ± 0.22 pg/mL
- IL13 concentration [3]: 2.98 ± 0.4 pg/mL
- IL15 concentration [3]: 3.29 ± 0.9 pg/mL
- IL17A concentration [3]: 3.57 ± 0.45 pg/mL
- IL18 concentration [3]: 156.97 ± 5.2 pg/mL
- IL21 concentration [3]: 2.64 ± 0.24 pg/mL
- IL22 concentration [3]: 8.21 ± 0.69 pg/mL
- IL23 concentration [3]: 7.43 ± 0 pg/mL
- IL27 concentration [3]: 5.92 ± 0.88 pg/mL
- IL31 concentration [3]: 4.14 ± 0.48 pg/mL
- IP-10/CXCL10 concentration [3]: 4100.26 ± 502.48 pg/mL
- LIF concentration [3]: 70.02 ± 3.89 pg/mL
- MCP1 concentration [3]: 15200 ± 0 pg/mL
- MIP1 alpha concentration [3]: 96.22 ± 3.58 pg/mL
- MIP1 beta concentration [3]: 317.95 ± 8.1 pg/mL
- PDGF-BB concentration [3]: 4.71 ± 0.23 pg/mL
- PIGF-1 concentration [3]: 59.49 ± 3.52 pg/mL
- RANTES concentration [3]: 241.39 ± 22.79 pg/mL
- SCF concentration [3]: 4.29 ± 0.29 pg/mL
- SDF-1 alpha concentration [3]: 3563.68 ± 157.35 pg/mL
- TNF alpha concentration [3]: 10525.46 ± 1077.11 pg/mL
- TNF beta concentration [3]: 4.47 ± 0.37 pg/mL
- VEGF-A concentration [3]: 1346.72 ± 67.56 pg/mL
- VEGF-D concentration [3]: 9.64 ± 0.91 pg/mL
- IFN gamma concentration [4]: 26972.77 ± 4164.13 pg/mL
- IL1RA concentration [4]: 5450.17 ± 388.11 pg/mL
- IL1 alpha concentration [4]: 6.3 ± 0.35 pg/mL
- IL1 beta concentration [4]: 8.81 ± 0.35 pg/mL
- IL2 concentration [4]: 31.88 ± 1.61 pg/mL
- IL4 concentration [4]: 8.19 ± 1.39 pg/mL
- IL5 concentration [4]: 25.61 ± 1.98 pg/mL
- IL6 concentration [4]: 646.2 ± 32.46 pg/mL
- IL7 concentration [4]: 2.14 ± 0.12 pg/mL
- IL8 concentration [4]: 2893.51 ± 190.51 pg/mL
- IL9 concentration [4]: 4.44 ± 0.54 pg/mL
- IL10 concentration [4]: 0.84 ± 0.08 pg/mL
- IL12p70 concentration [4]: 1.7 ± 0.2 pg/mL
- IL13 concentration [4]: 2.52 ± 0.42 pg/mL
- IL15 concentration [4]: 3.37 ± 0.8 pg/mL
- IL17A concentration [4]: 4.04 ± 0.49 pg/mL
- IL18 concentration [4]: 155.77 ± 4.15 pg/mL
- IL21 concentration [4]: 2.84 ± 0.04 pg/mL
- IL22 concentration [4]: 8.39 ± 0.51 pg/mL
- IL23 concentration [4]: 7.43 ± 0 pg/mL
- IL27 concentration [4]: 8.3 ± 1.2 pg/mL
- IL31 concentration [4]: 3.05 ± 0.38 pg/mL
- IP-10/CXCL10 concentration [4]: 4407.56 ± 645.63 pg/mL
- LIF concentration [4]: 67.62 ± 3.58 pg/mL
- MCP1 concentration [4]: 18512.1 ± 3312.1 pg/mL
- MIP1 alpha concentration [4]: 88.49 ± 5.06 pg/mL
- MIP1 beta concentration [4]: 316.74 ± 9.29 pg/mL
- PDGF-BB concentration [4]: 4.75 ± 0.16 pg/mL
- PIGF-1 concentration [4]: 55.63 ± 3.23 pg/mL
- RANTES concentration [4]: 238.51 ± 23.12 pg/mL
- SCF concentration [4]: 4.07 ± 0.21 pg/mL
- SDF-1 alpha concentration [4]: 3464.97 ± 155.2 pg/mL
- TNF alpha concentration [4]: 9777.73 ± 966.87 pg/mL
- TNF beta concentration [4]: 4.96 ± 0.56 pg/mL
- VEGF-A concentration [4]: 1256.89 ± 60.57 pg/mL
- VEGF-D concentration [4]: 8.03 ± 0.93 pg/mL
- IL1 alpha concentration [5]: 0.26 ± 0.05 pg/mL
- IL1 beta concentration [5]: 0.98 ± 0.12 pg/mL
- IL2 concentration [5]: 2.4 ± 0.09 pg/mL
- IL4 concentration [5]: 5.34 ± 0.89 pg/mL
- IL5 concentration [5]: 2.88 ± 0.36 pg/mL
- IL6 concentration [5]: 28.84 ± 1.89 pg/mL
- IL7 concentration [5]: 3.44 ± 0.16 pg/mL
- IL8 concentration [5]: 257.62 ± 7.07 pg/mL
- IL9 concentration [5]: 3.98 ± 0.36 pg/mL
- IL10 concentration [5]: 0.43 ± 0.11 pg/mL
- IL12p70 concentration [5]: 2.15 ± 0.26 pg/mL
- IL13 concentration [5]: 1.26 ± 0.15 pg/mL
- IL15 concentration [5]: 3.2 ± 0.71 pg/mL
- IL17A concentration [5]: 1.22 ± 0.2 pg/mL
- IL18 concentration [5]: 6.54 ± 0.37 pg/mL
- IL21 concentration [5]: 2.5 ± 0.3 pg/mL
- IL22 concentration [5]: 8.08 ± 0.82 pg/mL
- IL23 concentration [5]: 6.43 ± 1.28 pg/mL
- IL27 concentration [5]: 11.9 ± 2.31 pg/mL
- IL31 concentration [5]: 3.7 ± 0.06 pg/mL
- IP-10/CXCL10 concentration [5]: 20.23 ± 0.48 pg/mL
- LIF concentration [5]: 22.66 ± 0.82 pg/mL
- MCP1 concentration [5]: 1306.83 ± 54.65 pg/mL
- MIP1 alpha concentration [5]: 2.75 ± 0.26 pg/mL
- MIP1 beta concentration [5]: 113.08 ± 4.82 pg/mL
- PDGF-BB concentration [5]: 1.93 ± 0.18 pg/mL
- PIGF-1 concentration [5]: 20.55 ± 1.16 pg/mL
- RANTES concentration [5]: 10.17 ± 0.54 pg/mL
- SCF concentration [5]: 1.91 ± 0.15 pg/mL
- SDF-1 alpha concentration [5]: 990.69 ± 48.87 pg/mL
- TNF alpha concentration [5]: 2.41 ± 0.7 pg/mL
- TNF beta concentration [5]: 4.42 ± 0.57 pg/mL
- VEGF-A concentration [5]: 598.11 ± 16.67 pg/mL
- VEGF-D concentration [5]: 3.55 ± 0.66 pg/mL

From US12498382B2, “Biomarkers for vitiligo” (INCYTE CORPORATION, priority 2019, dated 2025)
